Test results from US12281098B2, “Five-membered-fused six-membered compound, preparation method, pharmaceutical composition and use” (HANGZHOU POLYMED BIOPHARMACEUTICALS, INC., priority 2021, dated 2025).

Biological target: T1, IRAK4 kinase (Homo sapiens, UniProt Q9NWZ3)
T1 construct: purchased Carna 09-145
T1 sequence (Q9NWZ3 1-460): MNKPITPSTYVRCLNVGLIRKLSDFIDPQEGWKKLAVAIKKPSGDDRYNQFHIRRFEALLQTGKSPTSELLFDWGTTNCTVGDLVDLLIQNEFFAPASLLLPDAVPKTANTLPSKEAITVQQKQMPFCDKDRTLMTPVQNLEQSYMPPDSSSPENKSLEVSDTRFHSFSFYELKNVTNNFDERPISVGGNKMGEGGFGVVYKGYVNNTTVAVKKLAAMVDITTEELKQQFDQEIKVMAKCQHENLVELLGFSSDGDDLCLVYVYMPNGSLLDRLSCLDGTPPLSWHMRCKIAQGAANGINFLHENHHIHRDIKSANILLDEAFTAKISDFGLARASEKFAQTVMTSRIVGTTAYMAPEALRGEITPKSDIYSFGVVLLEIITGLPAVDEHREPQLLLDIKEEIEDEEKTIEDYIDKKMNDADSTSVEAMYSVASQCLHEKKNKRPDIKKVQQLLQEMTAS
Test: Compound inhibition of IRAK4 kinase activity (fluorescence microfluidic mobility shift assay)
Assay type: biochemical
Conditions: 10 μM ATP, 6 nM IRAK4 kinase
Protocol: Based on the experimental method of fluorescence microfluidic mobility shift assay, the IC50 value of the compound for competitive binding of ATP to IRAK4 kinase was determined. The initial detection concentration of the compound was 10 μM, which was 4-fold serially diluted to 0.38 nM and assayed in duplicate. In this case, commercially available staurosporine was the standard control for the assay.
1) IRAK4 kinase was dissolved in kinase buffer (50 mM HEPES pH 7.5, 10 mM MgCl2, 2 mM DDT, and 0.01% Brij-35) at a final concentration of 6 nM.
2) The substrate peptide FAM-P8 and ATP were dissolved in the above kinase buffer, and the final concentrations of the substrate peptide FAM-P8 and ATP for IRAK4 were 3 μM and 10 μM, respectively.
3) Compound dilution: The compound was first diluted to 50 μM, and then 4-fold serially diluted with DMSO. In this case, the solution without compound and kinase served as the blank control, corresponding to the “minimum value” shown below; the solution without compound but containing kinase, adenosine 5′-triphosphate disodium salt hydrate, DMSO, and the buffer served as the positive control, corresponding to the “maximum value” shown below.
4) Kinase reaction and termination: 10 μL of the kinase buffer was added to a 384-well plate containing 5 μL of the compound to be tested, and the mixture was incubated at room temperature for 10 minutes; another 10 μL of buffer containing the substrate peptide and adenosine 5′-triphosphate disodium salt hydrate was added to the 384-well plate, and after incubation at 28° C. for 1 hour, 25 μL of termination solution (100 mM HEPES pH 7.5, 50 mM EDTA, 0.2% Coating Reagent #3, and 0.015% Brij-35) was added to each well to terminate the reaction.
5) Data reading: CaliperEZ Reader II instrument was used to read the conversion rate data. Setting conditions: downstream voltage as −500 V, upstream voltage as −2250 V, base pressure as −0.5 PSI, and screening pressure as −1.2 PSI.
6) Data calculation: the conversion rate data was copied from CaliperEZ Reader II, and the conversion rate was converted into inhibition rate data. The calculation formula is as follows: Inhibition percentage (%)=(maximum value−conversion rate)/(maximum value−minimum value)*100%
IC50 values were fitted with XLFit excel add-in version 5.4.0.8.

Row | SMILES | IC50 (Table 2) [nM] | IC50 (Table 1) [nM]
1 | COc1cc2c(cc1NC(=O)c1cccc(C(F)(F)F)n1)CN(CCC(C)(C)C(=O)N1CC3(C1)CN(c1cccc4c1C(=O)N(C1CCC(=O)NC1=O)C4=O)C3)C2=O (stereo not drawn) [III-64] | 100 to 1000 | –
2 | COc1cc2nn(CCC3CCN(CC(=O)N4CCC5(CCC(C(=O)N[C@H](C(=O)N6C[C@H](O)C[C@H]6C(=O)N[C@@H](C)c6ccc(-c7scnc7C)cc6)C(C)(C)C)CC5)CC4)CC3)cc2cc1NC(=O)c1cccc(C(F)(F)F)n1 [III-68] | < 100 | –
3 | Cc1ncsc1-c1ccc([C@H](C)NC(=O)[C@@H]2C[C@@H](O)CN2C(=O)[C@@H](NC(=O)C2CCC3(CC2)CCN(C(=O)CN2CCN(CCn4cc5cc(NC(=O)c6cccc(C(F)(F)F)n6)c(OC(C)C)cc5n4)CC2)CC3)C(C)(C)C)cc1 [III-57] | < 100 | –
4 | COc1cc2nn(CCN3CCN(CC(=O)N4CCC5(CCC(C(=O)N[C@H](C(=O)N6C[C@H](O)C[C@H]6C(=O)N[C@@H](C)c6ccc(-c7scnc7C)cc6)C(C)(C)C)CC5)CC4)[C@H](C)C3)cc2cc1NC(=O)c1cccc(C(F)(F)F)n1 [III-48] | < 100 | –
5 | COc1cc2nn(CCN3CCC(CC(=O)N4CC5(C4)CN(c4cccc6c4C(=O)N(C4CCC(=O)NC4=O)C6=O)C5)CC3)cc2cc1NC(=O)c1cccc(C(F)(F)F)n1 (stereo not drawn) [III-72] | < 100 | –
6 | COc1cc2nn(CCN3CCN(CC(=O)N4CCC5(CC4)CCN(c4cc6c(cc4F)C(=O)N(C4CCC(=O)NC4=O)C6=O)CC5)CC3)cc2cc1NC(=O)c1cccc(C(F)(F)F)n1 (stereo not drawn) [III-55] | < 100 | –
7 | COc1cc2c(cc1NC(=O)c1cccc(C(F)(F)F)n1)CN(CCC(C)(C)C(=O)N1CCC3(CC1)CN(c1cccc4c1C(=O)N(C1CCC(=O)NC1=O)C4=O)C3)C2=O (stereo not drawn) [III-59] | 100 to 1000 | –
8 | CC(C)(O)c1cc2nn(CCN3CCN(CC(=O)N4CCC5(CC4)CCN(c4cccc6c4C(=O)N(C4CCC(=O)NC4=O)C6=O)CC5)CC3)cc2cc1NC(=O)c1cccc(C(F)(F)F)n1 (stereo not drawn) [III-50] | < 100 | –
9 | O=C1CCC(N2C(=O)c3cccc(NCCOCCOCCOCCN4Cc5cc(NC(=O)c6cccc(C(F)(F)F)n6)c(Br)cc5C4=O)c3C2=O)C(=O)N1 (stereo not drawn) [III-4] | 1000 to 10000 | 1000 to 10000
10 | CC(C)(O)c1cc2nn(CCN3CCN(CC(=O)N4CC5(CCN(c6cccc7c6C(=O)N(C6CCC(=O)NC6=O)C7=O)CC5)C4)C3=O)cc2cc1NC(=O)c1cccc(C(F)(F)F)n1 (stereo not drawn) [III-12] | 100 to 1000 | 100 to 1000
11 | COc1cc2nn(CCC3CCN(CC(=O)N4CCC5(CC4)CCN(c4cccc6c4C(=O)N(C4CCC(=O)NC4=O)C6=O)CC5)CC3)cc2cc1NC(=O)c1cccc(C(F)(F)F)n1 (stereo not drawn) [III-66] | < 100 | –
12 | COc1cc2nn(CCN3CCN(CC(=O)N4CCC5(CC4)CCN(c4cccc6c4C(=O)N(C4CCC(=O)NC4=O)C6=O)CC5)[C@H](C)C3)cc2cc1NC(=O)c1cccc(C(F)(F)F)n1 (stereo partly drawn) [III-45] | < 100 | –
13 | COc1cc2c(cc1NC(=O)c1cccc(C(F)(F)F)n1)CN(CCC(C)(C)C(=O)N1CCC3(CC1)CCN(c1ncc(Nc4cccc5c4C(=O)N(C4CCC(=O)NC4=O)C5=O)cn1)CC3)C2=O (stereo not drawn) [III-33] | 100 to 1000 | –
14 | COc1cc2nn(CCN3CCN(CC(=O)N4CC5(C4)CN(c4cccc6c4C(=O)N(C4CCC(=O)NC4=O)C6=O)C5)CC3)cc2cc1NC(=O)c1cccc(C(F)(F)F)n1 (stereo not drawn) [III-61] | < 100 | –
15 | COc1cc2nn(CCN3CCN(CC(=O)N4CCC5(CC4)CCN(c4cccc6c4C(=O)N(C4CCC(=O)NC4=O)C6=O)CC5)[C@@H](C)C3)cc2cc1NC(=O)c1cccc(C(F)(F)F)n1 (stereo partly drawn) [III-46] | < 100 | –
16 | O=C(CCCN1Cc2cc(NC(=O)c3cccc(C(F)(F)F)n3)c(Br)cc2C1=O)NCCOCCOCCNc1cccc2c1C(=O)N(C1CCC(=O)NC1=O)C2=O (stereo not drawn) [III-1] | ≥ 10000 | ≥ 10000
17 | COc1cc2nn(CC#CC3CCN(CC(=O)N4CCC5(CC4)CCN(c4cccc6c4C(=O)N(C4CCC(=O)NC4=O)C6=O)CC5)CC3)cc2cc1NC(=O)c1cccc(C(F)(F)F)n1 (stereo not drawn) [III-67] | < 100 | –

Row | SMILES | IC50 (Table 2) [nM] | IC50 (Table 1) [nM]
18 | COc1cc2nn(CCN3CCN(C4CCC5(CC4)CCN(c4cccc6c4C(=O)N(C4CCC(=O)NC4=O)C6=O)CC5)CC3)cc2cc1NC(=O)c1cccc(C(F)(F)F)n1 (stereo not drawn) [III-40] | < 100 | –
19 | CC(C)Oc1cc2nn(CCN3CCN(CC(=O)N4CCC5(CC4)CCN(c4cccc6c4C(=O)N(C4CCC(=O)NC4=O)C6=O)CC5)CC3)cc2cc1NC(=O)c1cccc(C(F)(F)F)n1 (stereo not drawn) [III-51] | < 100 | –
20 | COc1cc2nn(CCN3CCC(CC(=O)N4CCC5(CC4)CCN(c4cccc6c4C(=O)N(C4CCC(=O)NC4=O)C6=O)CC5)CC3)cc2cc1NC(=O)c1cccc(C(F)(F)F)n1 (stereo not drawn) [III-71] | < 100 | –
21 | CC(C)Oc1cc2nn(CCN3CCN(CC(=O)N4CC5(C4)CN(c4cccc6c4C(=O)N(C4CCC(=O)NC4=O)C6=O)C5)CC3)cc2cc1NC(=O)c1cccc(C(F)(F)F)n1 (stereo not drawn) [III-60] | < 100 | –
22 | COc1cc2nn(CCC3CCN(CC(=O)N4CC5(CC(CC(=O)N[C@H](C(=O)N6C[C@H](O)C[C@H]6C(=O)N[C@@H](C)c6ccc(-c7scnc7C)cc6)C(C)(C)C)C5)C4)CC3)cc2cc1NC(=O)c1cccc(C(F)(F)F)n1 [III-70] | < 100 | –
23 | COc1cc2c(cc1NC(=O)c1cccc(C(F)(F)F)n1)CN(CCC(C)(C)C(=O)N1CCC3(CC1)CCN(c1ncc(C(=O)N[C@H](C(=O)N4C[C@H](O)C[C@H]4C(=O)N[C@@H](C)c4ccc(-c5scnc5C)cc4)C(C)(C)C)cn1)CC3)C2=O [III-32] | 100 to 1000 | –
24 | CC(C)(O)c1cc2nn(CCN3CCN(CC(=O)N4CCN(c5cccc6c5C(=O)N(C5CCC(=O)NC5=O)C6=O)CC4)C3=O)cc2cc1NC(=O)c1cccc(C(F)(F)F)n1 (stereo not drawn) [III-14] | 100 to 1000 | 100 to 1000
25 | CC(C)(O)c1cc2nn(CCN3CCN(CC(=O)NC4CCN(c5cccc6c5C(=O)N(C5CCC(=O)NC5=O)C6=O)CC4)C3=O)cc2cc1NC(=O)c1cccc(C(F)(F)F)n1 (stereo not drawn) [III-13] | 100 to 1000 | 100 to 1000
26 | COc1cc2nn(CCN3CCN(CC(=O)N4CCC5(CC4)CN(c4cccc6c4C(=O)N(C4CCC(=O)NC4=O)C6=O)C5)CC3)cc2cc1NC(=O)c1cccc(C(F)(F)F)n1 (stereo not drawn) [III-62] | < 100 | –
27 | COc1cc2c(cc1NC(=O)c1cccc(C(F)(F)F)n1)CN(CCN1CCN(CC(=O)N3CCC4(CC3)CCN(c3cccc5c3C(=O)N(C3CCC(=O)NC3=O)C5=O)CC4)CC1)C2=O (stereo not drawn) [III-58] | 100 to 1000 | –
28 | COc1cc2nn(CCN3CCN(CC(=O)N4CCC5(CC4)CCN(c4cccc6c4C(=O)N(C4CCC(=O)NC4=O)C6=O)CC5)CC3)cc2cc1NC(=O)c1cccc(C(F)(F)F)n1 (stereo not drawn) [III-38] | < 100 | –
29 | COc1cc2nn(CCN3C4CCC3CN(CC(=O)N3CCC5(CC3)CCN(c3cccc6c3C(=O)N(C3CCC(=O)NC3=O)C6=O)CC5)C4)cc2cc1NC(=O)c1cccc(C(F)(F)F)n1 (stereo not drawn) [III-53] | < 100 | –
30 | COc1cc2c(cc1NC(=O)c1cccc(C(F)(F)F)n1)CN(CCN1CCN(CC(=O)N3CCC4(CCC(NC(C(=O)N5CC(O)CC5C(=O)NC(C)c5ccc(-c6scnc6C)cc5)C(C)(C)C)CC4)CC3)CC1)C2=O (stereo not drawn) [III-44] | 100 to 1000 | –
31 | COc1cc2c(cc1NC(=O)c1cccc(C(F)(F)F)n1)CN(CCN1CCN(CC(=O)N3CCC4(CCC(C(=O)NC(C(=O)N5CC(O)CC5C(=O)NC(C)c5ccc(-c6scnc6C)cc5)C(C)(C)C)CC4)CC3)CC1)C2=O (stereo not drawn) [III-43] | 100 to 1000 | –
32 | Cc1ncsc1-c1ccc([C@H](C)NC(=O)C2C[C@@H](O)CN2C(=O)[C@@H](NC(=O)COCCNC(=O)CN2CCN(CCn3cc4cc(NC(=O)c5cccc(C(F)(F)F)n5)c(C(C)(C)O)cc4n3)C2=O)C(C)(C)C)cc1 (stereo partly drawn) [III-15] | 100 to 1000 | 100 to 1000
33 | O=C1CCC(N2C(=O)c3cccc(N4CCC5(CCN(C(=O)CN6CCN(CCn7cc8cc(NC(=O)c9cccc(C(F)(F)F)n9)c(OC(F)(F)F)cc8n7)CC6)CC5)CC4)c3C2=O)C(=O)N1 (stereo not drawn) [III-73] | 100 to 1000 | –
